# Data taken from patent publication US11161831B2, “Methods and compositions for treatment of muscle wasting, muscle weakness, and/or cachexia” (Baylor College of Medicine, priority 2013, dated 2021).
# What was measured:
# mice with CKD = experiment: CKD-induced muscle wasting in mice (subtotal nephrectomy); assay type: in vivo
# Description: FIGS. 21A-21G provides a small molecule inhibitor of Stat3 activation, C188-9, that blocks CKD-induced muscle wasting. FIG. 21A. Sham or CKD mice were treated with C188-9 or D5W (diluent) for 14 days. Representative western blots of p-Stat3, Stat3 and GAPDH from lysates of gastrocnemius muscles are shown (n=8 mice/group). FIG. 21B. Differences in body weights of pair-fed, sham or CKD mice treated with C188-9 or D5W at baseline and after 7 or 14 days of treatment (*p<0.05 vs. D5W sham). FIGS. 21C & 21D. Average weights of mixed fiber gastrocnemius and tibialis anterior (TA) muscles from both legs (n=7 mice/group). FIG. 21E. Cryosections of TA muscles were immunostained with anti-laminin to identify the muscle basement membrane. The myofiber areas were measured and the myofiber size distribution was calculated from the areas of ˜500 myofibers assessed by an observer blinded to treatment group (n=4 pairs of mice). FIG. 21F. Muscle force of each mouse studied in FIG. 3C was measured on four consecutive days (Experimental Procedures; n=7 mice/group). G&H. At 2 weeks of C188-9 or D5W treatment, protein synthesis (FIG. 21G) and degradation (FIG. 21H) were measured (n=8 pairs of mice; *p<0.05 vs. D5W). Values are means±SEM.
# FIG. 23A. Representative western blots of the indicated proteins from lysates of gastrocnemius muscles of control (Stat3flox/flox) or Stat3 KO sham or CKD mice. FIGS. 23B & 23C. mRNAs of myostatin (FIG. 23B) and C/EBPδ in muscles of sham or CKD mice analyzed by RT-PCR (n=4 mice/group; *p<0.05 vs. Stat3flox/flox sham). FIG. 23D. Representative western blots of the indicated proteins in lysates of gastrocnemius muscles of STZ vs. WT control mice (n=5 pairs). FIG. 23E. Sham or CKD mice were treated with C188-9 or D5W (diluent) for 14 days. Representative western blots of indicated proteins from lysates of gastrocnemius muscles are shown (n=8 mice/group). FIGS. 23F & 23G. mRNA levels of myostatin (FIG. 23F) and C/EBPδ (FIG. 23G) analyzed by RT-PCR and corrected for GAPDH (n=3 mice/group: wild-type mice without CKD; sham mice treated with C188-9 or D5W; mice with CKD treated with C188-9 or D5W; *p<0.05 vs. WT non-CKD). Values are means±SEM. FIG. 6. C/EBPδ and myostatin mediate CKD or Stat3-induced muscle wasting. A. Body weights of wild type or homo- or hetero-C/EBPδ KO mice following creation of CKD. Values are expressed as a percentage of basal body weight (mean±SEM; n=9 for WT mice; n=11 for C/EBPδ−/−; n=11 for C/EBPδ+/− mice; *p<0.05 vs. WT CKD). FIG. 23B. Survival was calculated as the percentage of mice surviving at 3 weeks after CKD or after sham surgery (n=20 for WT; n=25 for C/EBPδ−/−; n=21 for C/EBPδ+/−; *p<0.05 vs. C/EBPδ−/− CKD). FIG. 23C. Average weights from both legs of red fiber (soleus) or white fiber (EDL) muscles (mean±SEM; n=10 mice/group; *p<0.05 vs. WT CKD). FIG. 23D. Representative western blots of p-Stat3 and myostatin from muscles of CKD or sham-operated mice of the following groups: C/EBPδ−/−, C/EBPδ+/− or control (WT). FIG. 23E. Cryosections of gastrocnemius muscles from mice that were transfected with lentivirus expressing Stat3C-GPF or GFP and treated with anti-myostatin inhibitor or PBS. The sections were immunostained with p-Smad2/3 (red, lower panel). […] FIG. 23F. GFP-positive areas in myofibers were measured and the mean myofiber sizes of each group are shown (left panel). The percentage of p-Smad2/3 positive nuclei to total nuclei was calculated (right panel; mean±SEM, *p<0.05 vs. GFP/PBS).
# All animal experiments and procedures were approved by the Baylor College of Medicine Institutional Animal Care and Use Committee (IACUC). Subtotal nephrectomy was used to create CKD in mice (Zhang et al., 2011; May et al., 1987). To induce diabetes, 12-week-old Stat3^flox/flox and Stat3 KO mice were injected intraperitoneally with 2 doses of 150 mg/kg/d STZ (Sigma-Aldrich) in 0.1 M citrate buffer (pH 4). Control mice were injected with the citrate buffer. […]
# [1] = test system: Janus kinases (Jak1, Jak2) or Src family kinases (Hck, Lyn or Srms); settings: 10 μM concentration; cited from earlier work
# mice = experiment: Maximum tolerated dose in mice; assay type: in vivo, mouse; settings: over 14 days, Tweardy et al, unpublished data
# From the text: Presently, there are no clinically available drugs that directly target Stat3. Small molecule, drug development programs are initiated that target either the Stat3 homodimer interface or the Stat3 SH2 domain; the latter is required for Stat3 binding to phosphotyrosylpeptide ligands located within activated receptor complexes and within the Stat3 homodimer itself. Three candidate compounds (C3, C30 and C188) were identified; some identified single compounds including static (Schust et al., 2006), STA-21 (Song et al., 2005), S31-201 (Siddiquee et al., 2007) or LLL12 (Lin et al., 2010). Regarding LLL12, the evidence for direct inhibition of Stat3 vs. an upstream kinase was not presented. […] Regarding potency, neither the parent compounds identified by others nor derivatives of them are as potent as C188-9 (Bhasin et al., 2008; Zhang et al., 2010). In addition, compounds identified by others that have been tested in mice are not as well tolerated as C188-9 (Lin et al., 2009; Zhang et al., 2010); those compounds have a maximum tolerated dose of 5 mg/kg every 2 or 3 days compared to 100 mg/kg/day over 14 days for C188-9 (Tweardy et al, unpublished data). Thus, C188-9 has promise as a lead for development into a drug that could be administered safely to patients.
# [2] = CKD mice, 6.25 mg/kg subcutaneously daily for 14 days vs. D5W
# [3] = CKD mice, at 2 weeks, EDL muscles
compound,measurement,setting,value
COc1ccc(S(=O)(=O)Nc2cc(-c3c(O)ccc4ccccc34)c(O)c3ccccc23)cc1 [C188-9],body weights,mice with CKD; [2],significantly greater
same,level of p-Stat3 in muscle,mice with CKD; [2],decreased
same,Akt phosphorylation in muscle,"mice with CKD; CKD mice, 14 days",higher
same,CKD-induced phosphorylation of p-Smad2/3,"mice with CKD; CKD mice, 14 days",blocked
same,grip strength,"mice with CKD; CKD mice, 14 days vs. D5W",improved grip strength
same,C/EBPδ and myostatin proteins in muscle,"mice with CKD; CKD mice, 14 days, gastrocnemius lysates",decreased
same,CKD-stimulated mRNA expressions of C/EBPδ and myostatin,"mice with CKD; CKD mice, RT-PCR",suppressed
same,weights of gastrocnemius and tibialis anterior muscles,"mice with CKD; CKD mice, after 14 days vs. D5W",greater
same,muscle protein degradation,mice with CKD; [3],decreased protein degradation
same,muscle protein synthesis,mice with CKD; [3],improved muscle protein synthesis
same,C/EBPδ or myostatin mRNAs or proteins in muscle,mice with CKD; control mice without CKD,did not change
same,"food intake, body weight, muscle mass or grip strength","mice with CKD; control, wild type mice without CKD",did not significantly affect
same,"inhibition of upstream tyrosine kinases Jak1, Jak2, Hck, Lyn or Srms",[1],did not inhibit
same,maximum tolerated dose,mice,100 mg/kg/day
